Assay results as given in patent US12662498B2 (priority 2017, dated 2026).

Assay: ICH stability study of psilocybin batches (appearance, water content, purity, assay)
Conditions: for Chemical Purity By HPLC / Total Impurities / Water content by loss on drying: listed as GM764B

CN(C)CCc1c[nH]c2cccc(OP(=O)(O)O)c12 [Batch GM764B]
Appearance (T = 0): An off white solid. | Assay by 1H-NMR (T = 0): 97% ^w/w % w/w | Impurities by HPLC: RRT 0.86 (T = 0): 0.05% | Impurities by HPLC: RRT 1.46 (T = 0): 0.05% | Impurities by HPLC: RRT 1.59 (Psilocin) (T = 0): 0.37% | Chemical Purity By HPLC (T = 0): 99.24% | Total Impurities (T = 0): 0.76% | Water content by loss on drying (T = 0): 0.86% ^w/w % w/w | Appearance (T = 1 month, 2-8° C.): An off white solid. | Assay by 1H-NMR (T = 1 month, 2-8° C.): 99% ^w/w % w/w | Impurities by HPLC: RRT 0.86 (T = 1 month, 2-8° C.): 0.05% | Impurities by HPLC: RRT 1.46 (T = 1 month, 2-8° C.): 0.09% | Impurities by HPLC: RRT 1.59 (Psilocin) (T = 1 month, 2-8° C.): 0.35% | Chemical Purity By HPLC (T = 1 month, 2-8° C.): 99.24% | Total Impurities (T = 1 month, 2-8° C.): 0.76% | Water content by loss on drying (T = 1 month, 2-8° C.): 0.35% ^w/w % w/w | Appearance (T = 1 month, 25° C./60% RH): An off white solid. | Assay by 1H-NMR (T = 1 month, 25° C./60% RH): 98% ^w/w % w/w | Impurities by HPLC: RRT 0.86 (T = 1 month, 25° C./60% RH): 0.05% | Impurities by HPLC: RRT 1.46 (T = 1 month, 25° C./60% RH): 0.10% | Impurities by HPLC: RRT 1.59 (Psilocin) (T = 1 month, 25° C./60% RH): 0.34% | Chemical Purity By HPLC (T = 1 month, 25° C./60% RH): 99.22% | Total Impurities (T = 1 month, 25° C./60% RH): 0.78% | Water content by loss on drying (T = 1 month, 25° C./60% RH): 0.20% ^w/w % w/w | Appearance (T = 1 month, 40° C./75% RH): An off white solid. | Assay by 1H-NMR (T = 1 month, 40° C./75% RH): 96% ^w/w % w/w | Impurities by HPLC: RRT 0.86 (T = 1 month, 40° C./75% RH): 0.05% | Impurities by HPLC: RRT 1.46 (T = 1 month, 40° C./75% RH): 0.10% | Impurities by HPLC: RRT 1.59 (Psilocin) (T = 1 month, 40° C./75% RH): 0.34% | Chemical Purity By HPLC (T = 1 month, 40° C./75% RH): 99.23% | Total Impurities (T = 1 month, 40° C./75% RH): 0.77% | Water content by loss on drying (T = 1 month, 40° C./75% RH): 0.14% ^w/w % w/w | Appearance (T = 3 months, 2-8° C.): An off white solid. | Assay by 1H-NMR (T = 3 months, 2-8° C.): 97% ^w/w % w/w | Impurities by HPLC: RRT 0.86 (T = 3 months, 2-8° C.): < 0.05% | Impurities by HPLC: RRT 1.46 (T = 3 months, 2-8° C.): 0.10% | Impurities by HPLC: RRT 1.59 (Psilocin) (T = 3 months, 2-8° C.): 0.37% | Chemical Purity By HPLC (T = 3 months, 2-8° C.): 99.31% | Total Impurities (T = 3 months, 2-8° C.): 0.69% | Water content by loss on drying (T = 3 months, 2-8° C.): 0.26% ^w/w % w/w | Appearance (T = 3 months, 25° C./60% RH): An off white solid. | Assay by 1H-NMR (T = 3 months, 25° C./60% RH): 99% ^w/w % w/w | Impurities by HPLC: RRT 0.86 (T = 3 months, 25° C./60% RH): < 0.05% | Impurities by HPLC: RRT 1.46 (T = 3 months, 25° C./60% RH): 0.09% | Impurities by HPLC: RRT 1.59 (Psilocin) (T = 3 months, 25° C./60% RH): 0.36% | Chemical Purity By HPLC (T = 3 months, 25° C./60% RH): 99.27% | Total Impurities (T = 3 months, 25° C./60% RH): 0.73% | Water content by loss on drying (T = 3 months, 25° C./60% RH): 0.08% ^w/w % w/w | Appearance (T = 3 months, 40° C./75% RH): An off white solid. | Assay by 1H-NMR (T = 3 months, 40° C./75% RH): 97% ^w/w % w/w | Impurities by HPLC: RRT 0.86 (T = 3 months, 40° C./75% RH): < 0.05% | Impurities by HPLC: RRT 1.46 (T = 3 months, 40° C./75% RH): 0.10% | Impurities by HPLC: RRT 1.59 (Psilocin) (T = 3 months, 40° C./75% RH): 0.37% | Chemical Purity By HPLC (T = 3 months, 40° C./75% RH): 99.26% | Total Impurities (T = 3 months, 40° C./75% RH): 0.74% | Water content by loss on drying (T = 3 months, 40° C./75% RH): 0.14% ^w/w % w/w
